Data: ChEMBL document CHEMBL5154945, “Discovery and Optimization of Pyrrolopyrimidine Derivatives as Selective Disruptors of the Perinucleolar Compartment, a Marker of Tumor Progression toward Metastasis” (J Med Chem, 2022)

Key:
Assay type in all cases: functional, cell-based
Settings in all cases: dose 1-100 µM, DDE = dose-dependent effect
CAKI-1 = experiment: Anticancer activity against human CAKI-1 cells assessed as cell growth inhibition
SF-295 = experiment: Anticancer activity against human SF-295 cells assessed as cell growth inhibition
A549 = experiment: Anticancer activity against human A549 cells assessed as cell growth inhibition
UACC-257 = experiment: Anticancer activity against human UACC-257 cells assessed as cell growth inhibition
SK-MEL-2 = experiment: Anticancer activity against human SK-MEL-2 cells assessed as cell growth inhibition
SK-MEL-28 = experiment: Anticancer activity against human SK-MEL-28 cells assessed as cell growth inhibition
SNB-75 = experiment: Anticancer activity against human SNB-75 cells assessed as cell growth inhibition
BT-549 = experiment: Anticancer activity against human BT-549 cells assessed as cell growth inhibition
NCI-H322M = experiment: Anticancer activity against human NCI-H322M cells assessed as cell growth inhibition
SK-MEL-5 = experiment: Anticancer activity against human SK-MEL-5 cells assessed as cell growth inhibition
RXF 393 = experiment: Anticancer activity against human RXF 393 cells assessed as cell growth inhibition
SR = experiment: Anticancer activity against human SR cells assessed as cell growth inhibition
T47D = experiment: Anticancer activity against human T47D cells assessed as cell growth inhibition
Malme-3M = experiment: Anticancer activity against human Malme-3M cells assessed as cell growth inhibition
HL-60(TB) = experiment: Anticancer activity against human HL-60(TB) cells assessed as cell growth inhibition
HCC 2998 = experiment: Anticancer activity against human HCC 2998 cells assessed as cell growth inhibition
SF-539 = experiment: Anticancer activity against human SF-539 cells assessed as cell growth inhibition
NCI-H522 = experiment: Anticancer activity against human NCI-H522 cells assessed as cell growth inhibition
UO-31 = experiment: Anticancer activity against human UO-31 cells assessed as cell growth inhibition
NCI/ADR-RES = experiment: Anticancer activity against human NCI/ADR-RES cells assessed as cell growth inhibition
HCT-15 = experiment: Anticancer activity against human HCT-15 cells assessed as cell growth inhibition
K562 = experiment: Anticancer activity against human K562 cells assessed as cell growth inhibition
NCI-H460 = experiment: Anticancer activity against human NCI-H460 cells assessed as cell growth inhibition
NCI-H23 = experiment: Anticancer activity against human NCI-H23 cells assessed as cell growth inhibition
MOLT-4 = experiment: Anticancer activity against human MOLT-4 cells assessed as cell growth inhibition
IGROV-1 = experiment: Anticancer activity against human IGROV-1 cells assessed as cell growth inhibition
A498 = experiment: Anticancer activity against human A498 cells assessed as cell growth inhibition
SF-268 = experiment: Anticancer activity against human SF-268 cells assessed as cell growth inhibition
LOX IMVI = experiment: Anticancer activity against human LOX IMVI cells assessed as cell growth inhibition
786-0 = experiment: Anticancer activity against human 786-0 cells assessed as cell growth inhibition
CCRF-CEM = experiment: Anticancer activity against human CCRF-CEM cells assessed as cell growth inhibition

Measured: Activity

N=c1c2c(-c3ccccc3)c(-c3ccccc3)n(Cc3ccccc3)c2ncn1CCCO
active: CAKI-1 Dde | SF-295 Dde | A549 Dde | UACC-257 Dde | SK-MEL-2 Dde | SK-MEL-28 Dde | SNB-75 Dde | BT-549 Dde | NCI-H322M Dde | SK-MEL-5 Dde | RXF 393 Dde | SR Dde | T47D Dde | Malme-3M Dde | HL-60(TB) Dde | HCC 2998 Dde | SF-539 Dde | NCI-H522 Dde | UO-31 Dde | NCI/ADR-RES Dde | HCT-15 Dde | K562 Dde | NCI-H460 Dde | NCI-H23 Dde | MOLT-4 Dde | IGROV-1 Dde | A498 Dde | SF-268 Dde | LOX IMVI Dde | 786-0 Dde | CCRF-CEM Dde
